Where “and” joins values, the source holds several entries; their conditions need not be identical. Identical values can stand only once. Inconclusive results and toxic doses are left out. Square brackets hold non-standard residues; d marks the D form. Peptide text beside a SMILES is read from it. * marks the point of attachment. ξ: configuration not given here. ξF = NC(Cc1ccccc1)C(=O)O; Bz = O=C(c1ccccc1)*
Test system: P388 leukemia ip, CD2F1 mice, survival T/C
Test: NCI In Vivo Anticancer Drug Screen. Data for tumor model P388 Leukemia (intraperitoneal) in CD2F1 (CDF1) mice
Conditions: endpoint: median survival time, higher = longer survival
Experimental: The antitumor activity of compounds was measured in mice bearing transplantable tumors. Survival or tumor size were measured and the results are expressed as the measurement made in the treated group (T) divided by the measurement made in the vehicle treated control group (C). The tumor model used in this assay is P388 Leukemia (intraperitoneal) in CD2F1 (CDF1) mice

[1] = dose: 50.0 mg/kg/injection, schedule: Q01DX005 (ip), vehicle: Klucel (hydroxypropylcellulose) (HPC)
[2] = dose: 100.0 mg/kg/injection, schedule: Q01DX005 (ip), vehicle: Klucel (hydroxypropylcellulose) (HPC)
[3] = dose: 200.0 mg/kg/injection, schedule: Q01DX005 (ip), vehicle: Klucel (hydroxypropylcellulose) (HPC)

Compound: CC(=O)O[C@H]1C(=O)[C@@]2(C)[C@H]([C@H](OC(=O)c3ccccc3)[C@]3(O)C[C@H](OC(=O)[C@H](O)[C@@H](NC(=O)c4ccccc4)c4ccccc4)C(C)=C1C3(C)C)[C@]1(OC(C)=O)CO[C@@H]1C[C@@H]2O
- T/C (dose: 1.1 mg/kg/injection, schedule: Q01DX005 (ip), vehicle: other): 118 % of control
- T/C (dose: 1.1 mg/kg/injection, schedule: Q01DX005 (iv), vehicle: other): 98 % of control
- T/C (dose: 1.1 mg/kg/injection, schedule: Q01DX009 (oral), vehicle: other): 106 % of control
- T/C (dose: 1.25 mg/kg/injection, schedule: Q01DX009 (ip), vehicle: Klucel (hydroxypropylcellulose) (HPC)): 106 % of control
- T/C (dose: 1.25 mg/kg/injection, schedule: Q01DX009 (sc), vehicle: Klucel (hydroxypropylcellulose) (HPC)): 106 % of control
- T/C (dose: 1.7 mg/kg/injection, schedule: Q01DX005 (ip), vehicle: other): 115 % of control
- T/C (dose: 1.7 mg/kg/injection, schedule: Q01DX005 (iv), vehicle: other): 106 % of control
- T/C (dose: 1.7 mg/kg/injection, schedule: Q03HX024 (ip), vehicle: other): 160 % of control
- T/C (dose: 2.5 mg/kg/injection, schedule: Q01DX005 (ip), vehicle: Klucel (hydroxypropylcellulose) (HPC)): 124 % of control
- T/C (dose: 2.5 mg/kg/injection, schedule: Q01DX009 (ip), vehicle: Klucel (hydroxypropylcellulose) (HPC)): 112 % of control
- T/C (dose: 2.5 mg/kg/injection, schedule: Q01DX009 (oral), vehicle: Klucel (hydroxypropylcellulose) (HPC)): 100 % of control
- T/C (dose: 2.5 mg/kg/injection, schedule: Q01DX009 (sc), vehicle: Klucel (hydroxypropylcellulose) (HPC)): 99 % of control
- T/C (dose: 2.6 mg/kg/injection, schedule: Q01DX001 (ip), vehicle: other): 106 % of control
- T/C (dose: 2.6 mg/kg/injection, schedule: Q01DX001 (iv), vehicle: other): 94 % of control
- T/C (dose: 2.6 mg/kg/injection, schedule: Q01DX005 (ip), vehicle: other): 115 % of control
- T/C (dose: 2.6 mg/kg/injection, schedule: Q01DX005 (iv), vehicle: other): 97 % of control
- T/C (dose: 2.6 mg/kg/injection, schedule: Q03HX024 (ip), vehicle: other): 153 % of control
- T/C (dose: 2.6 mg/kg/injection, schedule: Q04DX003 (iv), vehicle: other): 87 % of control
- T/C (dose: 3.6 mg/kg/injection, schedule: Q01DX005 (ip), vehicle: Klucel (hydroxypropylcellulose) (HPC)): 161 % of control
- T/C (dose: 4.0 mg/kg/injection, schedule: Q01DX001 (iv), vehicle: other): 95 % of control
- T/C (dose: 4.0 mg/kg/injection, schedule: Q01DX005 (ip), vehicle: other): 120 % of control
- T/C (dose: 4.0 mg/kg/injection, schedule: Q01DX009 (oral), vehicle: other): 96 % of control
- T/C (dose: 4.0 mg/kg/injection, schedule: Q03HX008 (ip), vehicle: other): 156 % of control
- T/C (dose: 4.0 mg/kg/injection, schedule: Q04DX003 (ip), vehicle: other): 120 % of control
- T/C (dose: 4.0 mg/kg/injection, schedule: Q04DX003 (iv), vehicle: other): 87 % of control
- T/C (dose: 5.0 mg/kg/injection, schedule: Q01DX009 (ip), vehicle: Klucel (hydroxypropylcellulose) (HPC)): 116 % of control
- T/C (dose: 5.0 mg/kg/injection, schedule: Q01DX009 (oral), vehicle: Klucel (hydroxypropylcellulose) (HPC)): 99 % of control
- T/C (dose: 5.0 mg/kg/injection, schedule: Q01DX009 (sc), vehicle: Klucel (hydroxypropylcellulose) (HPC)): 98 % of control
- T/C (dose: 6.0 mg/kg/injection, schedule: Q01DX001 (ip), vehicle: other): 106 % of control
- T/C (dose: 6.0 mg/kg/injection, schedule: Q01DX005 (iv), vehicle: other): 112 % of control
- T/C (dose: 6.0 mg/kg/injection, schedule: Q01DX009 (oral), vehicle: other): 99 % of control
- T/C (dose: 6.0 mg/kg/injection, schedule: Q03HX008 (ip), vehicle: other): 178 % of control
- T/C (dose: 6.0 mg/kg/injection, schedule: Q04DX003 (iv), vehicle: other): 89 % of control
- T/C (dose: 9.0 mg/kg/injection, schedule: Q01DX001 (ip), vehicle: other): 115 % of control
- T/C (dose: 9.0 mg/kg/injection, schedule: Q01DX001 (iv), vehicle: other): 106 % of control
- T/C (dose: 9.0 mg/kg/injection, schedule: Q01DX005 (iv), vehicle: other): 118 % of control
- T/C (dose: 9.0 mg/kg/injection, schedule: Q01DX009 (oral), vehicle: other): 97 % of control
- T/C (dose: 10.0 mg/kg/injection, schedule: Q01DX009 (ip), vehicle: Klucel (hydroxypropylcellulose) (HPC)): 100 % of control and 106 % of control
- T/C (dose: 10.0 mg/kg/injection, schedule: Q01DX009 (oral), vehicle: Klucel (hydroxypropylcellulose) (HPC)): 99 % of control
- T/C (dose: 10.0 mg/kg/injection, schedule: Q01DX009 (sc), vehicle: Klucel (hydroxypropylcellulose) (HPC)): 96 % of control
- T/C (dose: 12.5 mg/kg/injection, schedule: Q04DX003 (ip), vehicle: Klucel (hydroxypropylcellulose) (HPC)): 150 % of control and 160 % of control
- T/C (dose: 16.7 mg/kg/injection, schedule: Q01DX005 (ip), vehicle: Klucel (hydroxypropylcellulose) (HPC)): 96 % of control
- T/C (dose: 20.0 mg/kg/injection, schedule: Q01DX009 (ip), vehicle: Klucel (hydroxypropylcellulose) (HPC)): 88 % of control
- T/C (dose: 20.0 mg/kg/injection, schedule: Q01DX009 (oral), vehicle: Klucel (hydroxypropylcellulose) (HPC)): 98 % of control
- T/C (dose: 20.0 mg/kg/injection, schedule: Q01DX009 (sc), vehicle: Klucel (hydroxypropylcellulose) (HPC)): 97 % of control
- T/C (dose: 21.6 mg/kg/injection, schedule: Q04DX003 (ip), vehicle: Klucel (hydroxypropylcellulose) (HPC)): 157 % of control
- T/C (dose: 25.0 mg/kg/injection, schedule: Q04DX003 (ip), vehicle: Klucel (hydroxypropylcellulose) (HPC)): 151 % of control and 155 % of control
- T/C (dose: 40.0 mg/kg/injection, schedule: Q01DX009 (oral), vehicle: Klucel (hydroxypropylcellulose) (HPC)): 104 % of control
- T/C (dose: 50.0 mg/kg/injection, schedule: Q04DX003 (ip), vehicle: Klucel (hydroxypropylcellulose) (HPC)): 124 % of control
- T/C (dose: 60.0 mg/kg/injection, schedule: Q04DX003 (ip), vehicle: Klucel (hydroxypropylcellulose) (HPC)): 107 % of control
- T/C (dose: 80.0 mg/kg/injection, schedule: Q01DX009 (oral), vehicle: Klucel (hydroxypropylcellulose) (HPC)): 98 % of control
- T/C (dose: 160.0 mg/kg/injection, schedule: Q01DX009 (oral), vehicle: Klucel (hydroxypropylcellulose) (HPC)): 99 % of control

Compound: O=C(/C=C/c1ccccc1)OCC1=C[C@@H](O)[C@@H]2C=CO[C@@H](OC3OC(CO)C(O)C(O)C3O)[C@H]12 (some centres not stated)
- T/C (dose: 12.5 mg/kg/injection, schedule: Q01DX005 (ip), vehicle: Klucel (hydroxypropylcellulose) (HPC)): 100 % of control
- T/C (dose: 25.0 mg/kg/injection, schedule: Q01DX005 (ip), vehicle: Klucel (hydroxypropylcellulose) (HPC)): 93 % of control
- T/C [1]: 112 % of control
- T/C [2]: 118 % of control
- T/C [3]: 115 % of control

Compound: COc1nc(NC2OC(COC(C)=O)C(OC(C)=O)C(OC(C)=O)C2OC(C)=O)c2ccoc2n1 (configuration not stated)
- T/C (dose: 60.0 mg/kg/injection, schedule: Q01DX005 (ip), vehicle: saline with Tween-80): 100 % of control
- T/C (dose: 120.0 mg/kg/injection, schedule: Q01DX005 (ip), vehicle: saline with Tween-80): 101 % of control
- T/C (dose: 240.0 mg/kg/injection, schedule: Q01DX005 (ip), vehicle: saline with Tween-80): 98 % of control

Compound: O=S1(=O)CC(N2CCOCC2)C2=C(O1)c1ccccc1OCC2 (configuration not stated)
- T/C [1]: 98 % of control
- T/C [2]: 97 % of control
- T/C [3]: 88 % of control

Compound: O=C(CNC(=O)c1ccccc1)NCC(=O)NC(Cc1ccccc1)C(=O)O (stereo not drawn) (Bz-Gly-Gly-[ξF]-OH)
- T/C (dose: 50.0 mg/kg/injection, schedule: Q01DX005 (ip), vehicle: saline with Tween-80): 96 % of control
- T/C (dose: 100.0 mg/kg/injection, schedule: Q01DX005 (ip), vehicle: saline with Tween-80): 100 % of control

Compound: CC1=CC(=O)C2(C)C1=CC(=O)C13COC4OC(CC1C4=O)C(O)C23 (configuration not stated)
- T/C (dose: 1.0 mg/kg/injection, schedule: Q01DX009 (ip), vehicle: Klucel (hydroxypropylcellulose) (HPC)): 97 % of control
- T/C (dose: 2.0 mg/kg/injection, schedule: Q01DX009 (ip), vehicle: Klucel (hydroxypropylcellulose) (HPC)): 94 % of control
- T/C (dose: 4.0 mg/kg/injection, schedule: Q01DX009 (ip), vehicle: Klucel (hydroxypropylcellulose) (HPC)): 98 % of control
- T/C (dose: 8.0 mg/kg/injection, schedule: Q01DX009 (ip), vehicle: Klucel (hydroxypropylcellulose) (HPC)): 102 % of control

Compound: O=C(O)COC(=O)c1ccc([N+](=O)[O-])cc1
- T/C (dose: 100.0 mg/kg/injection, schedule: Q04DX003 (ip), vehicle: Klucel (hydroxypropylcellulose) (HPC)): 99 % of control
- T/C (dose: 200.0 mg/kg/injection, schedule: Q04DX003 (ip), vehicle: Klucel (hydroxypropylcellulose) (HPC)): 108 % of control
- T/C (dose: 400.0 mg/kg/injection, schedule: Q04DX003 (ip), vehicle: Klucel (hydroxypropylcellulose) (HPC)): 100 % of control
